Assay results: patent publication US20120134946A1, “COMPOSITION HAVING ANTIOXIDANT AND WHITENING EFFECTS CONTAINING A CONCENTRATE OF KOREAN RICE WINE” (AMOREPACIFIC CORPORATION, priority 2009, published 2012)

Experiments:
[1] = tested on: Mouse melanocytes (Mel-Ab cells); experiment: Melanin production inhibiting effect using mouse melanocytes; assay type: cell-based; conditions: 10 ppm, 3 consecutive days, absorbance at 400 nm
Description: Mouse melanocytes (Mel-Ab cells) derived from C57BL/6 mouse (Dooley, T. P. et al, Skin Pharmacol., 7, pp. 188-200) were cultured under the condition of 37° C. and 5% CO2 in DMEM containing 10% FBS, 100 nM 2-O-tetradecanoyphorbol-13-acetate and 1 nM cholera toxin. The cultured Mel-Ab cells were detached with 0.25% trypsin-EDTA and cultured in a 24-well plate, with 10^5 cells/well. From day 2, hydroquinone or the concentrated makgeolli of Example 1 (10 ppm each) was added for 3 consecutive days as test sample. Hydroquinone was used as positive control. Subsequently, after removing the medium and washing with PBS, the cells were suspended in 1 N sodium hydroxide and absorbance was measured at 400 nm. Based on the measurement result, melanin production inhibiting effect was calculated according to Equation 1.
Melanin production inhibiting effect (%)=100−(Absorbance of test sample/Absorbance of control×100) Equation 1

human skin = experiment: Whitening effect for human skin (UVB-induced tanning); assay type: in vivo; conditions: 1% topical on UVB-tanned upper arm, 10 weeks, 12 healthy men, colorimeter
Description: The whitening effect of the concentrated makgeolli of Example 1 for human skin was tested as follows.
12 healthy men were used as test subjects. An opaque tape with a hole of 1.5 cm diameter was attached on the upper arm of the test subject and UVB of about 1.5-2 times the minimal erythemal dose was irradiated to induce tanning.
After the UV radiation, 1% concentrated makgeolli of Example 1 (in 7:3 1,3-butylene glycol:ethanol solvent), 1% hydroquinone or 1% solvent (vehicle, negative control) was applied. […] The skin color was measured every week using the colorimeter CR2002 (Minolta, Japan).
The difference in skin color (ΔL*) at the initiation of application and after the completion of test was calculated according to Equation 2. Whitening effect was determined from the ΔL* of the sample-applied portion and the control portion. A ΔL* value of about 2 can be evaluated as distinct whitening effect and one of about 1.5 can be evaluated as positive whitening effect.
ΔL*=L*after the completion of test−L*at the initiation of application Equation 2

[2] = Antioxidant effect (DPPH test); assay type: biochemical; conditions: 100 μM DPPH, 37° C., 30 minutes, absorbance at 540 nm
Description: The antioxidant effect was determined as the concentration at which absorbance is decreased to 50% of control (IC50). 100 μM DPPH solution (in ethanol, 190 μL) was mixed with the concentrated makgeolli prepared in Example 1 or control (10 μL each). The resulting mixture was kept at 37° C. for 30 minutes and absorbance was measured at 540 nm. Trolox, which is widely used as synthetic antioxidant, was used as the control.

[3] = tested on: Human keratinocyte HaCaT cell line; experiment: ROS production inhibiting effect using fluorescent substances (DCFH-DA, UVB); assay type: cell-based; conditions: light or radiation study, HaCaT cells, UVB 30 mJ/cm^2, DCF fluorescence, read-out: ROS production inhibiting effect (% of control)
Description: Human keratinocyte HaCaT cell line was used. The cells were seeded on a 96-well black plate for fluorescence measurement, with 2.0×10^4 cells per well, cultured under the condition of 37° C. and 5% CO2 for 1 day using Dulbecco's modified Eagle's medium (DMEM, FBS 10%) containing penicillin/streptomycin, and then treated with the test sample. The cells were cultured under the condition of 37°C. and 5% CO2 for 1 day using serum (FBS)-free DMEM containing penicillin/streptomycin treated with the test sample as described in Table 2. After culturing for 24 hours, after washing with HEPES-buffered control salt solution (HCSS) to remove the remaining medium and adding 20 μM 2′,7′-dichlorodihydro-fluorescein diacetate (DCFH-DA, Molecular Probes, Inc., 100 μL), the cells were cultured under the condition of 37° C. and 5% CO2 for 20 minutes and then washed with HCSS. Then, after adding HCSS (100 μL) treated with the samples of different concentrations, the fluorescence intensity of the ROS, oxidized dichlorofluorescein (DCF), was measured using a fluorescence plate reader (Ex=485 nm, Em=530 nm). Then, after immediately and 3 hours after irradiation of UVB (30 mJ/cm^2), fluorescence intensity was measured using the fluorescence plate reader (Ex=485 nm, Em=530 nm). Trolox was used as control.

| Compound | Melanin production inhibiting effect (%) [1] [%] | Change in skin color (ΔL*) (human skin) | IC50 (concentration at which absorbance is decreased to 50% of control) [2] [ppm] | activity at 1 ppm ([3]; 1 ppm) [%] | activity at 10 ppm ([3]; 10 ppm) [%] | activity at 25 ppm ([3]; 25 ppm) [%] | activity at 50 ppm ([3]; 50 ppm) [%] |
| --- | --- | --- | --- | --- | --- | --- | --- |
| Oc1ccc(O)cc1 [Hydroquinone] | 41.1 | 1.90 ± 0.11 | – | – | – | – | – |
| Cc1c(C)c2c(c(C)c1O)CCC(C)(C(=O)O)O2 (stereo not shown) [Trolox] | – | – | 8.64 | 76.9 | 74.6 | 73.3 | 58.5 |
